Laboratory results: US20230011869A1 (Hoffmann-La Roche Inc., priority 2018, published 2023)
Structures can show the parent of a compound that is named as a salt. Where two headings read alike, the source gives them in different places.

Test system: Acinetobacter baumannii ATCC17978
Test: Antimicrobial susceptibility testing: 90% growth inhibitory concentration (IC90) determination, Iso-Sensitest broth
Assay type: cell-based
Outline: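 A. baumannii ATCC17978 grown in Iso-Sensitest broth across 10 compound concentrations at 35±2 °C.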

[1] = Acinetobacter baumannii, ATCC17978, 16 h, read-out: ATCC17978 IC90, 90% growth inhibitory concentration, Acinetobacter baumannii ATCC17978, Iso-Sensitest broth, OD 600 nm over 16 h
[2] = 90% growth inhibitory concentration, Acinetobacter baumannii ATCC17978, Iso-Sensitest broth, OD 600 nm over 16 h, read-out: ATCC17978 IC90

Row | SMILES | IC90 [2] | IC90 [1] | other results
1 | COc1ccc(-c2cnc3c(Nc4ccc(C(=O)N5CCC(C(=O)NCC6CNC6)CC5)c(C)c4)nccn23)cc1F [Example 328, N-(azetidin-3-ylmethyl)-1-[4-[[3-(3-fluoro-4-methoxyphenyl)imidazo[1,2-a]pyrazin-8-yl]amino]-2-methylbenzoyl]piperidine-4-carboxamide; hydrochloride] |  | 0.39 µM | 
2 | Cc1cc(Nc2nccn3c(-c4ccc(OC(F)F)cc4)cnc23)ccc1C(=O)N1CCN(C(=O)[C@@H]2C[C@@H](O)CN2)CC1 [Example 180, [4-[[3-[4-(difluoromethoxy)phenyl]imidazo[1,2-a]pyrazin-8-yl]amino]-2-methyl-phenyl]-[4-[(2S,4R)-4-hydroxypyrrolidine-2-carbonyl]piperazin-1-yl]methanone hydrochloride] | 0.27 µM |  | 
3 | COc1ccc(-c2cnc3c(Nc4ccc(C(=O)N5CCN(C(=O)NC[C@H](C)N)CC5)c(C)c4)nccn23)c(F)c1F [Example 149, N-[(2S)-2-aminopropyl]-4-[4-[[3-(2,3-difluoro-4-methoxy-phenyl)imidazo[1,2-a]pyrazin-8-yl]amino]-2-methyl-benzoyl]piperazine-1-carboxamide] | 0.18 µM |  | 
4 | Cc1cc(Nc2nccn3c(-c4ccc(OC(F)F)cc4)cnc23)ccc1C(=O)N1CCN(C(=O)CNC(=O)CN)CC1 [Example 345, 2-amino-N-[2-[4-[4-[[3-[4-(difluoromethoxy)phenyl]imi-dazo[1,2-a]pyrazin-8-yl]amino]-2-methylbenzoyl]piperazin-1-yl]-2-oxoethyl]acetamide] |  | 0.57 µM | 
5 | CCc1cc(Nc2nccn3c(-c4ccc(OC)c(F)c4F)cnc23)ccc1C(=O)N1CCN(C(=O)[C@@H]2C[C@@H](O)CN2)CC1 [Example 185, [4-[[3-(2,3-difluoro-4-methoxy-phenyl)imidazo[1,2-a]pyrazin-8-yl]amino]-2-ethyl-phenyl]-[4-[(2S,4R)-4-hydroxypyrrolidine-2-carbonyl]piperazin-1-yl]methanone hydrochloride] | 0.22 µM |  | 
6 | CNCCC(=O)N1CCN(C(=O)c2ccc(Nc3nccn4c(-c5ccc(OC(F)F)cc5)cnc34)cc2C)CC1 [Example 332, 1-[4-[4-[[3-[4-(difluoromethoxy)phenyl]imi-dazo[1,2-a]pyrazin-8-yl]amino]-2-methylbenzoyl]piperazin-1-yl]-3-(methylamino)propan-1-one; hydrochloride] |  | 0.41 µM | 
7 | Cc1cc(Nc2nccn3c(-c4ccc(OCC#N)c(F)c4Cl)cnc23)ccc1C(=O)N1CCN(C(=O)NC[C@@H](C)N)CC1 [Example 164, N-[(2R)-2-aminopropyl]-4-[4-[[3-[2-chloro-4-(cyanomethoxy)-3-fluoro-phenyl]imidazo[1,2-a]pyrazin-8-yl]amino]-2-methyl-benzoyl]piperazine-1-carboxamide formate] | 0.071 µM |  | 
8 | Cc1cc(Nc2nccn3c(-c4ccc(OC(F)F)cc4)cnc23)ccc1C(=O)N1CCC2(CCOCC2)C1 [Example 370, [4-[[3-[4-(difluoromethoxy)phenyl]imi-dazo[1,2-a]pyrazin-8-yl]amino]-2-methylphenyl]-(8-oxa-2-azaspiro[4.5]decan-2-yl)methanone] |  | 1.1 µM | 
9 | Cc1cc(Nc2nccn3c(-c4ccc(OC(F)F)cc4)cnc23)ccc1C(=O)N1CCC(C(=O)N2C[C@H](O)[C@@H](O)C2)CC1 (racemic) [Example 415, [4-[[3-[4-(difluoromthoxy)phenyl]imi-dazo[1,2-a]pyrazin-8-yl]amino]-2-methylphenyl]-[4-[rac-(3R,4R)-3,4-dihydroxypyrrolidine-1-carbonyl]piperidin-1-yl]methanone] |  | 0.78 µM | 
10 | CCc1cc(Nc2nccn3c(-c4ccc(OCC#N)c(F)c4F)cnc23)ccc1C(=O)NCCNC(=O)[C@@H]1C[C@@H](O)CN1 [Example 457, (2S,4R)-N-[2-[[4-[[3-[4-(cyanomethoxy)-2,3-difluorophenyl]imidazo[1,2-a]pyrazin-8-yl]amino]-2-ethylbenzoyl]amino]ethyl]-4-hydroxypyrrolidine-2-carboxamide; formic acid] |  | 0.08 µM | 
11 | Cc1cc(Nc2nccn3c(-c4ccc(OC(F)F)cc4)cnc23)ccc1C(=O)N1CCN(C(=O)CN)CC1 [Example 259, 2-amino-1-[4-[4-[[3-[4-(difluoromethoxy)phenyl]imi-dazo[1,2-a]pryazin-8-yl]amino]-2-methylbenzoyl]piperazin-1-yl]ethanone; formic acid] |  |  | IC90 (read-out: ATCC17978 IC90, 90% growth inhibitory concentration, Acinetobacter baumannii ATCC17978, Iso-Sensitest broth, OD 600 nm over 16 h): 0.89 µM
12 | COc1ccc(-c2cnc3c(Nc4ccc(C(=O)N5CCN(C(=O)C6CCNCC6)CC5)c(C)c4)nccn23)c(Cl)c1F [Example 479, [4-[[3-(2-chloro-3-fluoro-4-methoxyphenyl)imidazo[1,2-a]pyrazin-8-yl]amino]-2-methylphenyl]-[4-(piperidine-4-carbonyl)piperazin-1-yl]methanone; formic acid] |  | 0.13 µM | 
13 | Cc1cc(Nc2nccn3c(-c4ccc(OC(F)F)cc4)cnc23)ccc1C(=O)N1CCC2(CCNCC2)CC1 [Example 359, 3,9-diazaspiro[5.5]undecan-3-yl-[4-[[3-[4-(difluoromethoxy)phenyl]imi-dazo[1,2-a]pyrazin-8-yl]amino]-2-methylphenyl]methanone; hy-drochloride] |  | 0.41 µM | 

More lines, main results first:

Row | IC90 [2] | SMILES | IC90 [1] | other results
14 | 1.2 µM | COc1ccc(-c2cnc3c(Nc4ccc(C(=O)N5CCC(C(=O)NCc6ccc(C(=O)O)cc6)CC5)c(C)c4)nccn23)cc1F [Example 427, 4-[[[1-[4-[[3-(3-fluoro-4-methoxyphenyl)imidazo[1,2-a]pyrazin-8-yl]amino]-2-methylbenzoyl]piperidine-4-carbonyl]amino]methyl]ben-zoic acid] |  | 
15 | 0.41 µM | Cc1cc(Nc2nccn3c(-c4ccc(OCC5CC5C#N)c(F)c4F)cnc23)ccc1C(=O)N1CCC(CN)CC1 (centres unmarked) [Example 114, 2-[[4-[8-[4-[4-(aminomethyl)piperidine-1-carbonyl]-3-methyl-anilino]imidazo[1,2-a]pyrazin-3-yl]-2,3-difluoro-phenoxy]methyl]cyclopropanecarbonitrile formate] |  | 
16 | 0.5 µM | CSc1ccc(-c2cnc3c(Nc4ccc(C(=O)N5CCC(CN)CC5)c(C)c4)nccn23)cc1F [Example 116, [4-(aminomethyl)-1-piperidyl]-[4-[[3-(3-fluoro-4-methylsulfanyl-phenyl)imidazo[1,2-a]pyrazin-8-yl]amino]-2-methyl-phenyl]methanone formate] |  | 
17 | 0.15 µM | CNC(=O)C1CCN(C(=O)c2ccc(Nc3nccn4c(-c5ccc(OC(F)F)cc5)cnc34)cc2C)CC1 [Example 15, 1-(4-((3-(4-(difluoromethoxy)phenyl)imidazo[1,2-a]pyrazin-8-yl)amino)-2-methylbenzoyl)-N-methylpiperidine-4-carboxamide] |  | 
18 | 0.25 µM | COc1ccc(-c2cnc3c(Nc4ccc(C(=O)N5CCN(C(=O)[C@H]6CCNC6)CC5)c(C)c4)nccn23)cc1F [Example 186, [4-[[3-(3-fluoro-4-methoxy-phenyl)imidazo[1,2-a]pyrazin-8-yl]amino]-2-methyl-phenyl]-[4-[(3S)-pyrrolidine-3-carbonyl]piperazin-1-yl]methanone hydrochloride] |  | 
19 | 0.4 µM | Cc1cc(Nc2nccn3c(-c4ccc(OC5(C#N)CC5)c(F)c4F)cnc23)ccc1C(=O)N1CCC(CN)CC1 [Example 115, 1-[4-[8-[4-[4-(aminomethyl)piperidine-1-carbonyl]-3-methyl-anilino]imidazo[1,2-a]pyrazin-3-yl]-2,3-difluoro-phenoxy]cyclopropanecarbonitrile formate] |  | 
20 | 1.2 µM | COc1ccc(-c2cnc3c(Nc4ccc(C(=O)N5CCN(C)CC5)c(C)c4)nccn23)cc1 [Example 5, (4-((3-(4-methoxyphenyl)imidazo[1,2-a]pyrazin-8-yl)amino)-2-methylphenyl)(4-methylpiperazin-1-yl)methanone] |  | 
21 | 0.229 µM | COc1ccc(-c2cnc3c(Nc4ccc(C(=O)N5CCC(C(=O)NCC(O)CN6CCCC6)CC5)c(C)c4)nccn23)cc1F (centres unmarked) [Example 568, 1-(4-((3-(3-fluoro-4-methoxyphenyl)imidazo[1,2-a]pyrazin-8-yl)amino)-2-methylbenzoyl)-N-(2-hydroxy-3-(pyrrolidin-1-yl)propyl)piperidine-4-carboxamide] |  | 
22 | 0.16 µM | COc1ccc(-c2cnc3c(Nc4ccc(C(=O)N5CCC(C(=O)NCCCN6CCC6)CC5)c(C)c4)nccn23)cc1F [Example 62, N-(3-(azetidin-1-yl)propyl)-1-(4-((3-(3-fluoro-4-methoxyphenyl)imidazo[1,2-a]pyrazin-8-yl)amino)-2-methylbenzoyl)piperidine-4-carboxamide] |  | 
23 | 0.73 µM | Cc1cc(Nc2nccn3c(-c4ccc(OC(F)F)cc4)cnc23)ccc1C(=O)N1CCN(C(=O)C(O)CN)CC1 (centres unmarked) [Example 255, 3-amino-1-[4-[4-[[3-[4-(difluoromethoxy)phenyl]imi-dazo[1,2-a]pyrazin-8-yl]amino]-2-methylbenzoyl]piperazin-1-yl]-2-hydroxypropan-2-one; 2,2,2-trifluoroacetc acid] |  | 
24 | 1.2 µM | COc1ccc(-c2cnc3c(Nc4ccc(C(=O)N5C[C@@H](O)[C@H](O)C5)c(C)c4)nccn23)cc1F [Example 425, [(3R,4R)-3,4-dihydroxypyrrolidin-1-yl]-[4-[[3-(3-fluoro-4-methoxyphenyl)imidazo[1,2-a]pyrazin-8-yl]amino]-2-methylphenyl]methanone] |  | 
25 | 0.27 µM | COc1ccc(-c2cnc3c(Nc4ccc(C(=O)N5CCNCC5CO)c(C)c4)nccn23)cc1F (centres unmarked) [Example 42, (4-((3-(3-fluoro-4-methoxyphenyl)imidazo[1,2-a]pyrazin-8-yl)amino)-2-methylphenyl)(2-(hydroxymethyl)piperazin-1-yl)methanone] |  | 
26 | 0.72 µM | Cc1cc(Nc2nccn3c(-c4ccc(OC(F)F)cc4)cnc23)ccc1C(=O)N1CCC(Oc2ncccn2)CC1 [Example 12] |  | 
